Data reported in article PMC8418751, “3D-printing magnesium–polycaprolactone loaded with melatonin inhibits the development of osteosarcoma by regulating cell-in-cell structures” (Journal of Nanobiotechnology, 2021).

What was measured:
human OS (U2OS) cells = experiment: U2OS xenograft in nude mice: OS growth and metastasis; format: in vivo, Balb/c nude mice; details: nude mice with implanted U2OS cells, 27 days
Experimental: Female Balb/c nude mice (n = 6, 8 weeks old) were purchased from the Experimental Animal Center of Jilin University. The mice were bred under temperature-controlled conditions at 22.6 ± 2 °C with a 12-h day/light cycle. All applicable institutional and national guidelines for the care and use of animals were followed and the animal experiments were approved by the Animal Care and Use Committee of China Medical University. The heterograft mouse model was established by subcutaneous injection of 2 × 10^8 human OS (U2OS) cells suspended in 0.2 ml medium into the root of the right thigh. […]
The mice were sacrificed. […] Histological alterations were evaluated using a fluorescence microscope (Nikon Eclipse Ti, Optical Apparatus Co., Ardmore, USA) and a confocal microscope (Carl Zeiss, LSM 780).
Tissues were fixed in 4% paraformaldehyde. […] The average number of deposits per section was calculated using Image-Pro Plus 6.0 (Media Cybernetics, USA). […]

U2OS cells [1] = experiment: Mitochondrial physiology of U2OS cells (fluorescence, Western blot, mtDNA, ATP, O2 consumption); format: cell-based, human; details: 24 h
Experimental: (§1) U2OS cells were divided into 8 groups: (1) Control group: without any treatment; (2) MT group: U2OS cells were added with 1 mM melatonin; (3) MT + ROCK activator group: U2OS cells were added with 1mM melatonin and 50 µM ROCK activator (pentanoic acid); (4) MT + ROCK inhibitor group: U2OS cells were added with 1mM melatonin and 50 µM ROCK inhibitor (ROCK inhibitor-2); (5) Mg–PCL group: U2OS cells were co-cultured with Mg–PCL scaffold; (6) Mg–PCL + MT group: U2OS cells were co-cultured with Mg–PCL scaffold loaded with melatonin; (7) Mg–PCL + MT + ROCK activator group: U2OS cells were co-cultured with Mg–PCL scaffold loaded with melatonin and added with 50 µM ROCK activator (pentanoic acid); and (8) Mg–PCL + MT + ROCK activator group: U2OS cells were co-cultured with Mg–PCL scaffold loaded with melatonin and added with 50 µM ROCK inhibitor (ROCK inhibitor-2).
Cells or tissues were washed with ice-cold PBS and resuspended in lysis buffer (50 mM Tris–HCl, 150mM NaCl, 1% NP-40, 0.5% sodium deoxycholate, 0.1% sodium dodecyl sulfate) containing protease and phosphorylase inhibitor cocktails. After centrifugation at 12,000g for 30 min at 4 °C, the supernatant containing total protein was collected and quantified using the BCA protein concentration assay kit (Boster, Hubei, China). […] Immunoreactive bands were visualized by the EC3 imaging system (UVP Inc., California, USA), and quantified with the ImageJ software (NIH, USA). The ratios between the proteins of interest and loading controls of the same sample were calculated as relative content and expressed graphically. […]
After treatment, the cells were fixed with 4% paraformaldehyde at room temperature (23–25 °C) for 15 min. […] Each experiment was repeated three times (total, n = 90 cells) and the fluorescence intensities were quantified with the ImageJ software. […] The cells were then washed with ice-cold PBS, and analyzed under a confocal laser scanning microscope (Olympus, Tokyo, Japan). […] Image-Pro Plus 6.0 (Media Cybernetics) was used for quantifying mitochondria. […]

U2OS cells [2] = experiment: Transwell (Boyden chamber) cell invasion and migration assays; format: cell-based, human; details: 24 h
Experimental: as §1
To examine the effects of melatonin and CIC formation on the invasiveness of U2OS cells in vitro, we employed a modified Boyden chamber invasion assay with Matrigel coating. After treatment, the cells were seeded into the upper section of the Boyden chamber (Neuro Probe, Cabin John, MD, USA) at densities of 2.0 × 10^5/ml, and then incubated for 24 h at 37 °C. Finally, the cells were counted under a light microscope. Cell migration was measured by a cell invasion assay without Matrigel coating.

U2OS cells [3] = experiment: Wound-healing assay; format: cell-based, human
Experimental: as §1
The U2OS cells were plated at 8.5 × 10^5/well on 6-well plates for 48 h and were wounded by scratching with a pipette tip. They were subsequently incubated with DMEM containing 0.5% FBS. After repeated treatment at 0, 12, 24 and 48 h, the cells were photographed using a phase contrast microscope (Olympus, Japan).

[4] = In vivo safety of melatonin in mice (body weight, HE of main organs); details: tail vein, once every 2 days at 3 mg each time, 30 days
Experimental: Tissues were fixed in 4% paraformaldehyde. After fixation, the samples were decalcified in 10% EDTA for 21 days before paraffin embedding and then sliced microtomically into a systematic series of 16 μm sections. Standard HE staining was performed and photographed. The average number of deposits per section was calculated using Image-Pro Plus 6.0 (Media Cybernetics, USA).
The safety of melatonin in mice was further studied by injecting melatonin into the tail vein of mice once every 2 days at 3 mg each time. After 30 days, the heart, liver, spleen, lung, kidney and other important organs were collected, sectioned and stained with HE for microscopy observation. […] Along with the increasing of the mass ratio of melatonin and SunP Gel G1, the LE and LC were increased. The LE reached peak at mass ratio of 1:2 and was decreased at mass ratio of 2:1. The mass ratio of 1:2 was selected for further experiments.

U2OS cells [5] = experiment: CIC formation in U2OS cells (immunofluorescence, electron microscope); format: cell-based, human; details: immunofluorescence and electron microscope
Experimental: The cells were scrapped after treatment, collected by centrifugation, washed with PBS and fixed with 5% glutaraldehyde. After the cells were dehydrated, embedded, sectioned, stained, the mitophagosomes were observed by TEM. The quantity of CIC structures was calculated in 10 fields a view. After treatment, the cells were fixed with 4% paraformaldehyde at room temperature (23–25 °C) for 15 min. After PBS washing, cells were permeabilized with 0.2% Triton X-100 for 5 min. Sections were incubated in a blocking buffer containing 5% BSA for 30 min at room temperature (23–25 °C), followed by incubation with primary antibodies overnight at 4 °C. Secondary antibodies labeled with fluorescein (1:500, Abcam) were applied for 120 min. After incubating with 0.1% DAPI for 10 min and another wash with PBS, images were captured on a wide field fluorescent microscope (Olympus, Japan). Each experiment was repeated three times (total, n = 90 cells) and the fluorescence intensities were quantified with the ImageJ software. […] The cells were then washed with ice-cold PBS, and analyzed under a confocal laser scanning microscope (Olympus, Tokyo, Japan). […] Image-Pro Plus 6.0 (Media Cybernetics) was used for quantifying mitochondria.

[6] = In vitro release of melatonin (dialysis bag, PBS pH 7.4); format: physicochemical; details: at 10 h; PBS pH 7.4, 37 °C
Experimental: Standard curve of melatonin was first draw using PBS (pH = 7.4) as solvent under the wavelength of the maximum absorption peak (278 nm). […] The dialysis bag was then placed in a beaker containing the same pH PBS buffer and was vibrated horizontally in a constant temperature shaker (37 °C ± 0.5 °C) with a vibration frequency of 50 times/min. The release liquid (5 ml) was replaced with same amounts of fresh PBS at selected time intervals. The absorbance value of the solution was measured at 278 nm and the drug release rate was calculated as follow: R(%)=ρnV+Vi∑tn-iρi/MD×100 where R means the cumulative drug release rate (%); n means the number of sampling. ρn represents the mass concentration (g/l) of the drug in the nth release. V represents the total volume of the release liquid. ρi represents the mass concentration (g/l) of the drug in the ith release, Vi represents the volume of the release liquid at the ith sampling and MD means the mass of drug loaded (g).

[7] = test system: PKA-Rho/ROCK signaling pathway; experiment: Western blot of PKA, p-PKA, Rho, ROCK in U2OS cells; format: cell-based, human
Experimental: Cells or tissues were washed with ice-cold PBS and resuspended in lysis buffer (50 mM Tris–HCl, 150mM NaCl, 1% NP-40, 0.5% sodium deoxycholate, 0.1% sodium dodecyl sulfate) containing protease and phosphorylase inhibitor cocktails. After centrifugation at 12,000g for 30 min at 4 °C, the supernatant containing total protein was collected and quantified using the BCA protein concentration assay kit (Boster, Hubei, China). The samples were separated by SDS-PAGE and then transferred to polyvinylidene difluoride (PVDF) membranes (Millipore, Massachusetts, USA) (210 mA, between 30 and 120 min according to the molecular mass of the protein). After blocking for 2 h with 5% non-fat milk, the PVDF membranes were incubated with the appropriate primary antibodies (1:500 or 1:1000 dilution) at 4 °C overnight. The blots were then incubated with anti-mouse or anti-rabbit IgG conjugated to horseradish peroxidase (1:5000 dilution) for 1 h at room temperature (23–25 °C). Immunoreactive bands were visualized by the EC3 imaging system (UVP Inc., California, USA), and quantified with the ImageJ software (NIH, USA). The ratios between the proteins of interest and loading controls of the same sample were calculated as relative content and expressed graphically. The results were averaged from three independent experiments.

COc1ccc2[nH]cc(CCNC(C)=O)c2c1 [melatonin, Melatonin]
cell apoptosis of xenograft tumors (TUNEL) (human OS (U2OS) cells): promoted | tumor weight of xenograft tumors (human OS (U2OS) cells): effectively inhibited | cell proliferation of xenograft tumors (Ki-67) (human OS (U2OS) cells; melatonin 40 mg kg−1 day−1 i.p. or loaded scaffold, ROCK activator/inhibitor 10 mg kg−1 day−1 i.p.): effectively inhibited | relative fluorescence of mitochondria (U2OS cells [1]; 1 mM melatonin, 50 µM ROCK activator/inhibitor): reduced | expression of mitochondrial biogenesis-related proteins PGC1α, NRF1 and TFAM (U2OS cells [1]; Western blot): downregulated | expression of mitochondrial biomarkers TOM20, COX-4l1 and ATP Synβ (U2OS cells [1]; Western blot): reduced | number of invaded and migrated cells (Transwell) (U2OS cells [2]): significantly lower | cell migrated area relative to control (wound healing) (U2OS cells [3]; U2OS cells): significantly decreased | scratch width (wound healing) (U2OS cells [3]; U2OS cells, 0, 12, 24 and 48 h): wider | organ damage (HE staining of heart, liver, spleen, lung, kidney) [4]: no organ damage was observed | weight of mice [4]: stable without notable changes | number of CIC structure (U2OS cells [5]): significantly reduced | cumulative release rate [6]: 96.3% | PKA phosphorylation (Western blot) [7]: promote PKA phosphorylation | Rho and ROCK expressions (Western blot) [7]: reduced
